{
  "source": "patent US12318484B2",
  "about": "(priority 2016, dated 2025)",
  "test_system": "IL-1B, IL-8, TLR7 and TLR8 mRNA",
  "assay_type": "cell-based, ferrets",
  "details": "100 μM, ferret whole blood",
  "data": [
    {"substance": "CL075", "values": [
      {"measurement": "IL-1B, IL-8, TLR7 and TLR8 mRNA", "result": "significant increases"}
    ]}
  ]
}
